# Measured values as given in patent US20170051149A1, “AZOARYLS AS REVERSIBLY MODULATABLE TUBULIN INHIBITORS” (ECOLE NORMALE SUPERIEURE DE LYON, priority 2014, published 2017).
# Key:
# Jurkat cells [1] = test: membrane permeability, PI uptake in nonpermeabilized cells; format: cell-based; details: 15 nM, 48 h
# Procedure: (§1) Membrane integrity was assessed as a marker of cellular viability, via examining the uptake of propidium iodide (PI) in nonpermeabilized cells according to a standard protocol. Namely, cells were harvested and incubated with 5 μg/mL PI in PBS containing 2% FCS (foetal calf serum), and immediately analysed by flow cytometry using a FACSCalibur flow cytometer.
# MDA-MB-231 = test: as above; format: cell-based; details: 15 nM, 70 h
# Procedure: as §1
# HeLa [2] = test: as above; format: cell-based; details: 15 nM, 70 h
# Procedure: as §1
# HeLa cells [3] = test: nuclear fragmentation (subG1, Nicoletti), induction of apoptosis; format: cell-based; details: 15 nM, 30 h
# Procedure: (§2) Different cell types, including MDA-MB-231, Jurkat, HeLa and HepG2 cells, were treated with indicated concentrations of compound I.1 and exposed to a 390 nm toxic regime, a rescue regime with both 390 nm and 515 nm light, or kept in the dark. Following the treatment, cells were stained with PI and the percentage of cells containing a hypodiploid amount of DNA (subG1 phase of cell cycle), was determined. Briefly, prior to analysis, cells were harvested on ice and incubated in a hypotonic buffer [0.1% sodium citrate, 0.1% Triton X-100 and 50 μg/mL propidium iodide (PI)] for 30 min at 4° C. Following the PI staining cells were analysed by flow cytometry using FACSCalibur flow cytometer (Becton Dickinson, Heidelberg, Germany) and Cell Quest Pro Software (Becton Dickinson).
# Jurkat cells [4] = test: as above; format: cell-based; details: 48 h
# Procedure: as §2
# HeLa cells [5] = test: MTT assay; format: cell-based; details: 50 nM, 48 h
# Description: The cytotoxic properties of I.1 were subsequently confirmed with another method, using the quantification of mitochondrial dehydrogenase activity of cells as determined by the level of 3-(4.5-dimethylthiazol-2-yl)-2.5-diphenyl tetrazolium bromide (MTT) reduction to its purple formazan, according to standard protocol^[30]. […] Cells were kept in the dark, or exposed to a pulsed toxic regime of 390 nm only, or exposed to a strong rescue protocol with pulses of 390 nm then 505 nm light. Pulses of light were applied every 30 s; 390 nm light pulses lasted 150 ms every 30 s, while the 505 nm light pulses were applied for 500 ms; in the strong rescue regime, the 505 nm pulse was synchronised so that it began immediately after the 390 nm pulse ended.
# Cellular viability was measured 48 h later, namely, cells were incubated with MTT for three hours and after dissolution of the formazan crystals with DMSO, absorbance at 550 nm was measured using a FLUOstar Omega microplate reader. Results are shown in Table 5 below and are expressed as a fold growth relative to the control growth of the cells treated only with a co-solvent (0.5% MeCN) and represent mean and standard deviation of quadruplicates of the optical density values, which are proportional to the cell number.
# MDA-MB-231 cells = test: cell cycle analysis by PI flow cytometry; format: cell-based; details: 15 nM, 30 h
# Procedure: (§3) The effect of compound I.1 on cell cycle progression was assessed by flow cytometry. Briefly, following the application of compound I.1 and exposure to the indicated light regime, cells were harvested on ice and incubated in a hypotonic buffer [0.1% sodium citrate, 0.1% Triton X-100 and 50 μg/mL propidium iodide (PI)] for 30 min at 4° C. Following the PI staining cells were analysed by flow cytometry using FACSCalibur flow cytometer (Becton Dickinson, Heidelberg, Germany) and Cell Quest Pro Software (Becton Dickinson). Subsequently the cell cycle analysis was performed using the FlowJo software (Tree Star Inc., Ashland, Oreg., USA).
# HeLa [6] = test: cell cycle analysis by PI flow cytometry; format: cell-based; details: 15 nM, 30 h
# Procedure: as §3
# HEK-293 = test: cell cycle analysis by PI flow cytometry; format: cell-based; details: 15 nM, 30 h
# Procedure: as §3
# HEK-293T cells = test: MTT assay, light-dependent cell proliferation; format: cell-based; details: 72 h
# tubulin = details: trans isomer; read-out: in vitro IC50, tubulin polymerisation; cited from earlier work
smiles,measurement,setting,value
"COc1ccc(/C=C\c2cc(OC)c(OC)c(OC)c2)cc1OP(=O)(O)O [CA4P, fosbretabulin, reference compound]",mean % cells PI+,Jurkat cells [1]; 390 nm (350 ms every 5 min),5.7%
same,mean % cells PI+,Jurkat cells [1]; dark,8.0%
same,mean % cells PI+,MDA-MB-231; 390 nm (1 s every 15 min),43.2%
same,mean % cells PI+,MDA-MB-231; dark,45.1%
same,mean % cells PI+,HeLa [2]; 390 nm (1 s every 15 min),63.9%
same,mean % cells PI+,HeLa [2]; dark,62.5%
same,mean % subG1 phase,HeLa cells [3]; 390 nm light (1 s pulses every 15 min),12.3%
same,mean % subG1 phase,HeLa cells [3]; dark,11.5%
same,mean % subG1 phase,"Jurkat cells [4]; 5 nM, 390 nm (350 ms pulses every 5 min)",40.4%
same,mean % subG1 phase,"Jurkat cells [4]; 5 nM, dark",37.5%
same,mean % subG1 phase,"Jurkat cells [4]; 15 nM, 390 nm (350 ms pulses every 5 min)",91.5%
same,mean % subG1 phase,"Jurkat cells [4]; 15 nM, dark",89.7%
same,mean fold growth,HeLa cells [5]; 390 nm (150 ms every 30 s),0.38 fold
same,mean fold growth,HeLa cells [5]; Dark,0.29 fold
same,mean % G2/M phase,MDA-MB-231 cells; 390 nm (1 s every 15 min),50.9%
same,mean % G2/M phase,MDA-MB-231 cells; dark,51.3%
same,mean % G2/M phase,HeLa [6]; 390 nm (1 s every 15 min),69.5%
same,mean % G2/M phase,HeLa [6]; dark,69.0%
same,mean % G2/M phase,HEK-293; 390 nm (1 s every 15 min),70.1%
same,mean % G2/M phase,HEK-293; dark,72.0%
same,fold growth relative to cosolvent control (MTT),"HEK-293T cells; 5 nM, 390 nm, 0.35 s every 2 min",1.29
same,fold growth relative to cosolvent control (MTT),"HEK-293T cells; 5 nM, 390 nm, 0.35s then 490 nm, 3 s (rescue) every 2 min",1.28
same,fold growth relative to cosolvent control (MTT),"HEK-293T cells; 5 nM, 410 nm, 0.35 s every 2 min",1.19
same,fold growth relative to cosolvent control (MTT),"HEK-293T cells; 5 nM, 410 nm, 0.35 s then 505 nm, 3 s (rescue) every 2 min",1.20
same,fold growth relative to cosolvent control (MTT),"HEK-293T cells; 5 nM, 475 nm, 3 s every 2 min",1.12
same,fold growth relative to cosolvent control (MTT),"HEK-293T cells; 5 nM, 490 nm, 3 s every 2 min",1.43
same,fold growth relative to cosolvent control (MTT),"HEK-293T cells; 5 nM, 505 nm, 3 s every 2 min",1.07
same,fold growth relative to cosolvent control (MTT),"HEK-293T cells; 5 nM, 525 nm, 3 s every 2 min",0.86
same,fold growth relative to cosolvent control (MTT),"HEK-293T cells; 5 nM, Dark",0.82
same,fold growth relative to cosolvent control (MTT),"HEK-293T cells; 15 nM, 390 nm, 0.35 s every 2 min",0.88
same,fold growth relative to cosolvent control (MTT),"HEK-293T cells; 15 nM, 390 nm, 0.35s then 490 nm, 3 s (rescue) every 2 min",0.82
same,fold growth relative to cosolvent control (MTT),"HEK-293T cells; 15 nM, 410 nm, 0.35 s every 2 min",0.80
same,fold growth relative to cosolvent control (MTT),"HEK-293T cells; 15 nM, 410 nm, 0.35 s then 505 nm, 3 s (rescue) every 2 min",0.81
same,fold growth relative to cosolvent control (MTT),"HEK-293T cells; 15 nM, 475 nm, 3 s every 2 min",0.70
same,fold growth relative to cosolvent control (MTT),"HEK-293T cells; 15 nM, 490 nm, 3 s every 2 min",0.97
same,fold growth relative to cosolvent control (MTT),"HEK-293T cells; 15 nM, 505 nm, 3 s every 2 min",0.75
same,fold growth relative to cosolvent control (MTT),"HEK-293T cells; 15 nM, 525 nm, 3 s every 2 min",0.81
same,fold growth relative to cosolvent control (MTT),"HEK-293T cells; 15 nM, Dark",0.79
CCCCCCCOc1ccc(/N=N/c2ccc(CNN[C@H](C=O)CCCCN)cc2)cc1 [P1],IC50,tubulin,~100 µM
